Reference: publication PMC11845477, “Exploring the principles behind antibiotics with limited resistance” (Nature Communications, 2025)

Experiments:
[1] = test system: K. pneumoniae ATCC 10031 (SEN) and K. pneumoniae ATCC 700603 (MDR); experiment: Adaptive laboratory evolution (ALE), relative MIC of evolved lines; type: cell-based, Klebsiella pneumoniae
Excerpt: Using the same set of bacterial strains, we initiated adaptive laboratory evolution with the aim to maximize the level of antibiotic resistance in the populations achieved during a longer, but fixed time period.
An established protocol for adaptive laboratory evolution[46],[73] was followed to propagate populations with the highest resistance levels. Starting with an antibiotic concentration that caused approximately 50% growth inhibition, ten parallel populations for each antibiotic-ancestor strain combination were grown for 72 hours at 37 °C with continuous shaking (300 RPM). MHB broth medium was used unless stated otherwise. After each incubation, 20 µl of each culture was transferred to four new wells containing fresh medium with increasing antibiotic concentrations (0.5×, 1×, 1.5×, and 2.5× the previous concentration) in a chessboard layout to monitor potential cross-contamination. Growth was monitored by measuring OD600 using a Biotek Synergy 2 microplate reader, and only populations grown in the highest drug concentration with an OD600 > 0.2 were transferred further.
A robotic liquid handling system was used to automatically prepare a 11 to 16-step serial dilution in 384-well microtiter plates (Greiner). A final concentration of 5 × 10^5 bacterial cells per mL were inoculated into each well containing 60 µL MHB medium. Bacterial cultures were incubated at 37 °C with continuous shaking (Infors shaker, 900 rpm with 3 mm throw) for 18 hours (2 replicates from each). Cell growth was monitored by measuring the optical density (OD600 values, using Biotek Synergy microplate reader). MIC was defined as the antibiotic concentration of complete growth inhibition (i.e., OD600 < 0.05). Relative MIC was calculated as follows:1 relativeMIC=MICevolved/MICancestor […]
Supplementary Figure 4. Resistance levels following adaptive laboratory evolution across bacterial strains. The level of resistance was measured as the fold change in relative MIC between evolved and ancestral strains after ~60 days of adaptive laboratory evolution. Data are grouped by bacterial strain (A. baumannii (AB), E. coli (EC), K. pneumoniae (KP), and P. aeruginosa (PA)) and categorized as either multidrug-resistant (MDR) or sensitive (SEN). Each data point represents a laboratory evolved line, and boxplots show the median, first and third quartiles, with whiskers indicating the 5th and 95th percentiles.
Statistical analysis was performed using two-sided Dunn’s post-hoc test with Benjamini-Hochberg correction for multiple comparisons (****/ ***/ **/ * indicates p < 0.0001/ 0.001/ 0.01/ 0.05). For detailed information on antibiotic and bacterial species, see Supplementary Table 1. For mode of action groups, refer to Table 1. Source data are provided as a Source Data file.

E. coli BW25113-ΔacrB = experiment: AcrAB-TolC efflux deficiency screen, relative MIC; type: cell-based, Escherichia coli; settings: ΔacrB vs wild-type
Description: Fig. 6 The impact of AcrAB-TolC activity on antibiotic susceptibility. E. coli strains with AcrAB-TolC depletion (BW25113-ΔacrB) and overexpression (BW25113: pUCacrAB) were treated with various antibiotics, and the level of resistance was determined as minimum inhibitory concentration (MIC) relative to a wild-type strain, presented on a logarithmic scale (log2). Each bar represents the mean resistance level (susceptibility, i.e., level of resistance < 0; and resistance, i.e., level of resistance > 0) to antibiotics induced by acrAB overexpression (blue bars; E. coli with a multicopy plasmid of the acrAB genes (pUCacrAB)) and acrB deletion (red bars; mutant E. coli with acrB gene deletion (ΔacrB)) compared to the wild-type. Data are presented as mean values of 3 biological replicates ± SD. […] Detailed information on antibiotic and bacterial strain abbreviations is provided in Supplementary Data 1. Source data are provided as a Source Data file. For information on mode of action groups, refer to Table 1.
For the efflux deficiency screen, the ΔacrB mutant of E. coli K12 BW25113[86] and its equivalent wild-type control strain with intact gene were utilized. In contrast, BW25113 carrying a multicopy acrAB plasmid (pUCacrAB)[87] and its control strain harboring an empty pUC118 plasmid were used to overexpress the acrAB efflux system. According to established protocols via P1 transduction, the suitable acrB deletion mutant (ΔacrB BW25113) was created, while the pUCacrAB plasmid was kindly provided by Kunihiko Nishino and Akihito Yamaguchi (Osaka University, Osaka, Japan). In a prior study, both strains were employed. Since the copy number of the plasmid carrying the efflux pump is controlled by native promoters, external induction is unnecessary.
Antibiotic susceptibilities of these strains were evaluated using a modified version of the standard broth dilution method. In 96-well microtiter plates containing fresh MHB medium, or supplemented MS medium in case of SCH79797, ten-step serial dilutions of an antibiotic from a stock solution were made (2 wells per antibiotic concentration per strain). The two wells contained only supplemented media without any antibiotics […]. Strains were incubated overnight at 37 °C with continuous agitation. Additionally, plasmid containing strains were grown in the presence of 100 µg/mL ampicillin. The culture was diluted to yield a cell suspension with 5 ×10^5 cells/mL and then inoculated into the wells of the microtiter plate. To determine the medium’s background OD value, the first column of the 96-well plate contained solely MHB without inoculum. Prior to the measurement, the plates were incubated at 37 °C with continuous shaking at 900 rpm with 3 mm throw. OD600 values were determined in a microplate reader after 18 hours of incubation (Biotek Synergy 2). The minimum inhibitory concentration (MIC) was determined as the lowest concentration of antibiotic at which the OD600 values were less than 0.05 after subtracting the background value. The log2 of the relative MIC was computed using the following equation:2 log2relativeMICpUCacrAB=MICpUCacrAB/MICpUC118 3 log2relativeMICΔacrB=MICΔacrB/MICwt

CN[C@@H]1[C@@H](O[C@H]2O[C@H](CO)[C@@H](N)[C@H](O)[C@H]2O)OC2C[C@@H](N)[C@@H](O[C@H]3[C@H](O)[C@@H](O)[C@H](N)C[C@@H]3N)OC2[C@@H]1O (some centres unmarked) [Apramycin]
4: Relative MIC ([1]; KP-MDR (ATCC 700603), evolved line 4, MIC of evolved line / MIC of ancestor) | Relative MIC ([1]; KP-MDR (ATCC 700603), evolved line 7, MIC of evolved line / MIC of ancestor) | Relative MIC ([1]; Klebsiella pneumoniae ATCC 700603 (KP-MDR), evolved line 4) | Relative MIC ([1]; Klebsiella pneumoniae ATCC 700603 (KP-MDR), evolved line 7)
2.107: Relative MIC (log10) ([1]; KP-SEN (Klebsiella pneumoniae ATCC 10031), evolved line 10 adapted to the named antibiotic)
1: Relative MIC (log2) (E. coli BW25113-ΔacrB; replicate 1) | Relative MIC (log2) (E. coli BW25113-ΔacrB; replicate 2) | Relative MIC (log2) (E. coli BW25113-ΔacrB; replicate 3)
64: Relative MIC ([1]; KP-SEN (ATCC 10031), evolved line 2, MIC of evolved line / MIC of ancestor) | Relative MIC ([1]; KP-SEN (ATCC 10031), evolved line 5, MIC of evolved line / MIC of ancestor) | Relative MIC ([1]; KP-SEN (ATCC 10031), evolved line 6, MIC of evolved line / MIC of ancestor) | Relative MIC ([1]; KP-SEN (ATCC 10031), evolved line 8, MIC of evolved line / MIC of ancestor) | Relative MIC ([1]; KP-SEN (ATCC 10031), evolved line 9, MIC of evolved line / MIC of ancestor) | Relative MIC ([1]; Klebsiella pneumoniae ATCC 10031 (KP-SEN), evolved line 2) | Relative MIC ([1]; Klebsiella pneumoniae ATCC 10031 (KP-SEN), evolved line 5) | Relative MIC ([1]; Klebsiella pneumoniae ATCC 10031 (KP-SEN), evolved line 6) | Relative MIC ([1]; Klebsiella pneumoniae ATCC 10031 (KP-SEN), evolved line 8) | Relative MIC ([1]; Klebsiella pneumoniae ATCC 10031 (KP-SEN), evolved line 9)
32: Relative MIC ([1]; KP-SEN (ATCC 10031), evolved line 3, MIC of evolved line / MIC of ancestor) | Relative MIC ([1]; Klebsiella pneumoniae ATCC 10031 (KP-SEN), evolved line 3)
8: Relative MIC ([1]; KP-MDR (ATCC 700603), evolved line 1, MIC of evolved line / MIC of ancestor) | Relative MIC ([1]; KP-MDR (ATCC 700603), evolved line 6, MIC of evolved line / MIC of ancestor) | Relative MIC ([1]; KP-MDR (ATCC 700603), evolved line 8, MIC of evolved line / MIC of ancestor) | Relative MIC ([1]; KP-MDR (ATCC 700603), evolved line 10, MIC of evolved line / MIC of ancestor) | Relative MIC ([1]; Klebsiella pneumoniae ATCC 700603 (KP-MDR), evolved line 1) | Relative MIC ([1]; Klebsiella pneumoniae ATCC 700603 (KP-MDR), evolved line 6) | Relative MIC ([1]; Klebsiella pneumoniae ATCC 700603 (KP-MDR), evolved line 8) | Relative MIC ([1]; Klebsiella pneumoniae ATCC 700603 (KP-MDR), evolved line 10)
128: Relative MIC ([1]; KP-SEN (ATCC 10031), evolved line 10, MIC of evolved line / MIC of ancestor) | Relative MIC ([1]; Klebsiella pneumoniae ATCC 10031 (KP-SEN), evolved line 10)
1.806: Relative MIC (log10) ([1]; KP-SEN (Klebsiella pneumoniae ATCC 10031), evolved line 2 adapted to the named antibiotic) | Relative MIC (log10) ([1]; KP-SEN (Klebsiella pneumoniae ATCC 10031), evolved line 5 adapted to the named antibiotic) | Relative MIC (log10) ([1]; KP-SEN (Klebsiella pneumoniae ATCC 10031), evolved line 6 adapted to the named antibiotic) | Relative MIC (log10) ([1]; KP-SEN (Klebsiella pneumoniae ATCC 10031), evolved line 8 adapted to the named antibiotic)
0.9031: Relative MIC (log10) ([1]; KP-MDR (Klebsiella pneumoniae ATCC 700603), evolved line 1 adapted to the named antibiotic) | Relative MIC (log10) ([1]; KP-MDR (Klebsiella pneumoniae ATCC 700603), evolved line 8 adapted to the named antibiotic)
16: Relative MIC ([1]; KP-MDR (ATCC 700603), evolved line 2, MIC of evolved line / MIC of ancestor) | Relative MIC ([1]; KP-MDR (ATCC 700603), evolved line 3, MIC of evolved line / MIC of ancestor) | Relative MIC ([1]; KP-MDR (ATCC 700603), evolved line 5, MIC of evolved line / MIC of ancestor) | Relative MIC ([1]; KP-MDR (ATCC 700603), evolved line 9, MIC of evolved line / MIC of ancestor) | Relative MIC ([1]; Klebsiella pneumoniae ATCC 700603 (KP-MDR), evolved line 2) | Relative MIC ([1]; Klebsiella pneumoniae ATCC 700603 (KP-MDR), evolved line 3) | Relative MIC ([1]; Klebsiella pneumoniae ATCC 700603 (KP-MDR), evolved line 5) | Relative MIC ([1]; Klebsiella pneumoniae ATCC 700603 (KP-MDR), evolved line 9)
1.204: Relative MIC (log10) ([1]; KP-MDR (Klebsiella pneumoniae ATCC 700603), evolved line 2 adapted to the named antibiotic) | Relative MIC (log10) ([1]; KP-MDR (Klebsiella pneumoniae ATCC 700603), evolved line 3 adapted to the named antibiotic) | Relative MIC (log10) ([1]; KP-MDR (Klebsiella pneumoniae ATCC 700603), evolved line 9 adapted to the named antibiotic)
